Where “and” joins values, the source holds several entries; their conditions need not be identical. Equal entries are not always repeated.
Assays:
Type in all cases: in vivo
[1] = system: larvae of the mustard beetle (Phaedon cochleariae); assay: Phaedon larvae test (cabbage leaves dipped)
Procedure: (§1) • Solvent: 7 parts by weight of dimethylformamide • Emulsifier: 2 parts by weight of alkylaryl polyglycol ether
(§2) To produce a suitable preparation of active compound, 1 part by weight of active compound is mixed with the stated amounts of solvent and emulsifier, and the concentrate is diluted with emulsifier-containing water to the desired concentration.
Cabbage leaves (Brassica oleracea) are treated by being dipped into the preparation of active compound of the desired concentration and are populated with larvae of the mustard beetle (Phaedon cochleariae) while the leaves are still moist.
After the desired period of time, the kill in % is determined. 100% means that all beetle larvae have been killed; 0% means that none of the beetle larvae have been killed. The kill rates that have been determined are evaluated using Colby's formula.

[2] = system: cotton aphid (Aphis gossypii); assay: Aphis gossypii test (cotton leaves dipped)
Procedure: as §1
To produce a suitable preparation of active compound, 1 part by weight of active compound is mixed with the stated amounts of solvent and emulsifier, and the concentrate is diluted with water to the desired concentrations.
Cotton leaves (Gossypium hirsutum) which are heavily infested by the cotton aphid (Aphis gossypii) are treated by being dipped into the preparation of active compound of the desired concentration.
(§3) After the desired period of time, the kill in % is determined. 100% means that all aphids have been killed; 0% means that none of the aphids have been killed. The kill rates that have been determined are evaluated using Colby's formula.

[3] = system: green peach aphid (Myzus persicae); assay: Myzus test (cabbage leaves dipped)
Procedure: as §1, §2
Cabbage leaves (Brassica oleracea) which are heavily infested by the green peach aphid (Myzus persicae) are treated by being dipped into the preparation of active compound of the desired concentration.
as §3

[4] = system: caterpillars of the army worm (Spodoptera frugiperda); assay: Spodoptera frugiperda test (cabbage leaves dipped)
Procedure: as §1, §2
Cabbage leaves (Brassica oleracea) are treated by being dipped into the preparation of active compound of the desired concentration and are populated with caterpillars of the army worm (Spodoptera frugiperda) while the leaves are still moist.
(§4) After the desired period of time, the kill in % is determined. 100% means that all caterpillars have been killed; 0% means that none of the caterpillars have been killed. The kill rates that have been determined are evaluated using Colby's formula.

[5] = system: caterpillars of the diamond back moth (Plutella xylostella, sensitive strain); assay: Plutella test (cabbage leaves dipped)
Procedure: as §1, §2
Cabbage leaves (Brassica oleracea) are treated by being dipped into the preparation of active compound of the desired concentration and are populated with caterpillars of the diamond back moth (Plutella xylostella, sensitive strain) while the leaves are still moist.
as §4

C/C(=N\C#N)N(C)Cc1ccc(Cl)nc1 [acetamiprid (IV)]
Kill rate in % after 3^d ([1]; 4 ppm): 5%
Kill rate in % after 1^d ([2]; 0.16 ppm): 25%
Kill rate in % after 6^d ([3]; 0.16 ppm): 20%
Kill rate in % after 3^d ([4]; 4 ppm): 65%
Kill rate in % after 3^d ([5]; 4 ppm): 0%

CN/C(=N\[N+](=O)[O-])NCc1cnc(Cl)s1 [chlothianidin (VII)]
Kill rate in % after 3^d ([1]; 4 ppm): 30%
Kill rate in % after 6^d ([3]; 0.8 ppm): 95%
Kill rate in % after 3^d ([4]; 4 ppm): 85%

CN/C(=N\[N+](=O)[O-])NCC1CCOC1 (stereo not shown) [dinotefuran (VIII)]
Kill rate in % after 3^d ([1]; 4 ppm): 5%
Kill rate in % after 6^d ([2]; 0.8 ppm): 0%
Kill rate in % after 6^d ([3]; 4 ppm): 0%
Kill rate in % after 6^d ([4]; 4 ppm): 70%

O=[N+]([O-])/N=C1\NCCN1Cc1ccc(Cl)nc1 [imidacloprid (II), 1-[(6-chloro-3-pyridinyl)methyl]-N-nitro-2-imidazolidineimine]
Kill rate in % after 3^d ([1]; 4 ppm): 35%
Kill rate in % after 6^d ([2]; 0.16 ppm): 25%
Kill rate in % after 6^d ([3]; 0.16 ppm): 25%
Kill rate in % after 3^d ([4]; 4 ppm): 0%

N#C/N=C1\SCCN1Cc1ccc(Cl)nc1 [thiacloprid (III)]
Kill rate in % after 3^d ([1]; 4 ppm): 10%
Kill rate in % after 6^d ([2]; 0.8 ppm): 55%
Kill rate in % after 6^d ([3]; 0.8 ppm): 85%
Kill rate in % after 3^d ([4]; 4 ppm): 0%

CON=C(C(=O)OC)c1ccccc1CO/N=C(\C)c1cccc(C(F)(F)F)c1 [trifloxystrobin (I), methyl 2-[α-{[(α-methyl-3-trifluoromethylbenzyl)imino]oxy}-o-tolyl]-glyoxylate O-methyl oxime]
Kill rate in % after 3^d ([1]; 100 ppm): 0% and 5%
Kill rate in % after 1^d ([2]; 4 ppm): 0%
Kill rate in % after 6^d ([2]; 4 ppm): 0%
Kill rate in % after 1^d ([2]; 20 ppm): 0%
Kill rate in % after 6^d ([2]; 20 ppm): 0%
Kill rate in % after 6^d ([3]; 4 ppm): 0%
Kill rate in % after 6^d ([3]; 20 ppm): 0%
Kill rate in % after 6^d ([3]; 100 ppm): 10%
Kill rate in % after 3^d ([4]; 100 ppm): 0% and 5%
Kill rate in % after 6^d ([4]; 100 ppm): 0%
Kill rate in % after 3^d ([5]; 100 ppm): 0%
